Reference: US8440168B2, “Image-guided therapy of myocardial disease: composition, manufacturing and applications” (The Board of Regents of the University of Texas System, priority 2008, dated 2013)

Assays:
[1] = tested on: breast tumor-bearing rats; assay: Planar scintigraphic imaging in breast tumor-bearing rats; type: in vivo, Female Fischer 344 rats
Method: (§1) To ascertain ^99mTc-EDA-ESM is a heart-specific agent, not tumor seeking agent, the inventors created a tumor model. Female Fischer 344 rats (125-175 g, n=5) were inoculated with breast cancer cells (13762NF, 10^6 cells/rat, s.c. in the hind leg). After 15-20 days and a tumor volume of […], the breast tumor-bearing rats were administered with 300 μCi of ^99mTc-EDA-ESM. Scintigraphic images, using a gamma camera equipped with low-energy, parallel-hole collimator, were obtained from 15 to 45 min. In separate studies, normal Female Fischer 344 rats ([…], n=5) were administered with 300 μCi of ^99mTc-EDA-ESM and scintigraphic images were obtained at 30-180 min. One rat was administered with 300 μCi of ^99mTc-EDA-ESM and SPECT/CT was performed at 45 min. […] In normal rats administered with ^99mTc-EDA-ESM (n=5), heart to muscle ([…]) count density uptake ratios were increased (2.7 to 5.1) at 30-180 min (FIG. 11).

normal rat = assay: SPECT/CT imaging of a normal rat; type: in vivo; details: 300 μCi, SPECT/CT at 45 min
Method: as §1

[2] = breast tumor-bearing rats (13762NF), 300 μCi, planar scintigraphy 15 to 45 min

`CC(C)NCC(O)COc1ccc(CCC(=O)[N]2CC[NH][Tc]23(=[O])[NH]CC[N]3C(=O)CCc2ccc(OCC(O)CNC(C)C)cc2)cc1` (centres unmarked) [^99mTc-EDA-ESM, ^99mTc-Ethylenediamine-esmolol] was tested, and the heart uptake [1, 2] was “high uptake”, the tumor visualization [1, 2] was “could not be visualized well” and the “cardiac region count/pixels ratio (line profile curve)” value ([1]; breast tumor-bearing rats, 300 μCi/rat, 15-45 minutes, compared to laterally located tissues) was “high cardiac region count/pixels ratio”. The “Heart to muscle (H/M) count density uptake ratios” value ([1]; tumor-bearing rats (n=4), 300 μCi IV, sacrificed at 2 hrs, compared with heart/other tissue ratios) was “higher than other tissues” and the “heart uptake (SPECT/CT)” value (normal rat) was “high heart uptake”.
